Each structure is given as a SMILES string.

Chain of human Edg-2 receptor (LPA1 receptor) (Q92633 whole entry): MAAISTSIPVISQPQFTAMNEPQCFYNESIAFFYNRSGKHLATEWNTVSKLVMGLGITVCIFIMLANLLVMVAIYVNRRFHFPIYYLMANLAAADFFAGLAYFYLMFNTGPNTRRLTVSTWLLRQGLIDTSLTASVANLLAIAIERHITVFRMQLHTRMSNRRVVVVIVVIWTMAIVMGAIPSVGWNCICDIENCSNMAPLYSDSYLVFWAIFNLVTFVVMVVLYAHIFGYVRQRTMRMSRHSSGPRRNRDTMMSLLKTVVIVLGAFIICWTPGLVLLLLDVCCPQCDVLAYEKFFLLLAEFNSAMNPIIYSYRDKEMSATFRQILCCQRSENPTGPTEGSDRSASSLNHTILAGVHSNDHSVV

The target in the assay is human Edg-2 receptor (LPA1 receptor) (Homo sapiens, UniProt Q92633). Put plainly: Edg-2 receptor inhibition by FLIPR calcium fluorescence measurement (LPA-mediated calcium liberation). The format is cell-based. The following applies: CHO cells stably overexpressing human Edg-2 receptor; LPA 18:1 100 nM; fluo-4 fluorescence; triplicate; read-out: Inhibitory concentrations IC50 for inhibition of the Edg-2 receptor. An outline of the steps:
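CHO cells stably overexpressing human Edg-2 were fluo-4 loaded and pre-incubated ~5 min with compound (≤0.3% DMSO) in HBSS/HEPES/probenecid, pH 7.5. Then LPA 18:1 at 100 nM final was added. Peak calcium fluorescence over ~3 min, baseline-corrected versus DMSO, gave % inhibition in triplicate and IC50.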
Turning to `CNc1ccc(C(=O)NC2(C(=O)O)Cc3ccccc3C2)cc1OCCc1cccc(C)c1` [Example 164, 2-[4-Methylamino-3-(2-m-tolyl-ethoxy)-benzoylamino]-indane-2-carboxylic acid], the IC50 is less than 0.1 µM.

For `CCc1ccc(C(=O)NC2(C(=O)O)Cc3ccccc3C2)cc1OCCc1cccc(C)c1` [Example 10, 2-[4-Ethyl-3-(2-m-tolyl-ethoxy)-benzoylamino]-indane-2-carboxylic acid], the IC50 was less than 0.1 µM.

As to `Cc1cccc(CCOc2cc(C(=O)NC3(C(=O)O)Cc4ccccc4C3)ccc2S(C)(=O)=O)c1` [Example 6, 2-[4-Methanesulfonyl-3-(2-m-tolyl-ethoxy)-benzoylamino]-indane-2-carboxylic acid], the IC50 was in the range of 1 to 30 µM.

As to `COc1ccc(C(=O)NC2(C(=O)O)Cc3ccccc3C2)cc1-c1cccc(NS(C)(=O)=O)c1` [Example 307], the IC50 was less than 0.1 µM.

As to `COc1cc(Br)c(C(=O)NC2(C(=O)O)Cc3ccccc3C2)cc1OCCc1cccc(Cl)c1` [Example 104, 2-{2-Bromo-5-[2-(3-chloro-phenyl)-ethoxy]-4-methoxy-benzoylamino}-indane-2-carboxylic acid], the IC50 fell in the range of 1 to 30 µM.

For the molecule `COc1ccc(C(=O)NC2(C(=O)O)Cc3ccccc3C2)cc1OS(=O)(=O)c1ccccc1C` [Example 112], the IC50 was in the range of 1 to 30 µM.

Consider `COc1ccc(C(=O)NC2(C(=O)O)Cc3ccccc3C2)cc1OCCc1ccccc1C` [Example 134], for which the IC50 lay within 1 to 30 µM.

Regarding `COc1ccc(C(=O)NC2(C(=O)O)Cc3ccccc3C2)cc1-c1cccc(NC(=O)C(C)C)c1` [Example 350], the IC50 fell in the range of 1 to 30 µM.

Turning to `Cc1cccc(CCOc2cc(C(=O)NC3(C(=O)O)Cc4ccccc4C3)ccc2C(C)F)c1` (centres unmarked) [Example 11, 2-[4-(1-Fluoro-ethyl)-3-(2-m-tolyl-ethoxy)-benzoylamino]-indane-2-carboxylic acid], the IC50 is less than 0.1 µM.

Consider `COc1ccc(C(=O)NC2(C(=O)O)Cc3ccccc3C2)cc1-c1cc(Cl)ccc1F` [Example 332], for which the IC50 is 0.1 to 1 µM.

For the molecule `Cc1ccc(C(=O)NC2(C(=O)O)Cc3ccccc3C2)cc1OCCc1ccccc1F` [Example 177, 2-{3-[2-(2-Fluoro-phenyl)-ethoxy]-4-methyl-benzoylamino}-indane-2-carboxylic acid], the IC50 was in the range of 0.1 to 1 µM.

Turning to `COc1ccc(C(=O)NC2(C(=O)O)Cc3ccccc3C2)cc1-c1cccc(OCC(F)(F)F)c1` [Example 346], the IC50 was 0.1 to 1 µM.

Turning to `COc1ccc(C(=O)NC2(C(=O)O)Cc3ccccc3C2)cc1OCCCCc1ccccc1` [Example 34], the IC50 was in the range of 1 to 30 µM.

For the molecule `COc1ccc(C(=O)NC2(C(=O)O)CC3CCCCC3C2)cc1OCCc1cccc(C)c1` (centres unmarked) [Example 211, 2-[4-Methoxy-3-(2-m-tolyl-ethoxy)-benzoylamino]-octahydro-indene-2-carboxylic acid], the IC50 is less than 0.1 µM.

With `COc1ccc(C(=O)NC2(C(=O)O)Cc3ccccc3C2)cc1OCCc1nc(-c2ccccc2)oc1C` [Example 70], the IC50 lay in the range of 1 to 30 µM.

Take `N#Cc1ccc(C(=O)NC2(C(=O)O)Cc3ccccc3C2)cc1N1CCC(c2ccccc2)C1` (centres unmarked) [Example 174, 2-[4-Cyano-3-[3-phenyl-pyrrolidin-1-yl)-benzoylamino]-indane-2-carboxylic acid]: the IC50 lay in the range of 1 to 30 µM.

For `COc1ccc(C(=O)NC2(C(=O)O)Cc3ccccc3C2)cc1SCCc1cccc(Cl)c1` [Example 181, 2-{3-[2-(3-Chloro-phenyl)-ethylsulfanyl]-4-methoxy-benzoylamino}-indane-2-carboxylic acid], the IC50 is less than 0.1 µM.

As for `COc1cccc(CCOc2cc(C(=O)NC3(C(=O)O)Cc4ccccc4C3)ccc2OC)c1` [Example 133], the IC50 lay within 0.1 to 1 µM.

`COc1ccc(C(=O)NC2(C(=O)O)Cc3ccccc3C2)cc1-c1cccc(OC(C)C)c1` [Example 319]: the IC50 lay within 0.1 to 1 µM.

Turning to `COc1ccc(C(=O)NC2(C(=O)O)Cc3ccccc3C2)cc1OCc1csc2ccccc12` [Example 72], the IC50 lay within 1 to 30 µM.

As to `COc1ccc(C(=O)NC2(C(=O)O)Cc3ccccc3C2)cc1Cc1ccccc1` [Example 243, 2-[4-Methoxy-3-benzyl-benzoylamino]-indane-2-carboxylic acid], the IC50 lay within 1 to 30 µM.

`COc1ccc(C(=O)NC2(C(=O)O)Cc3ccccc3C2)cc1OCCc1ccccc1F` [Example 139]: the IC50 was in the range of 0.1 to 1 µM.

In the case of `COc1ccc(C(=O)NC2(C(=O)O)Cc3ccccc3C2)cc1OCCc1cc(C)ccc1C` [Example 140], the IC50 was in the range of 1 to 30 µM.

As for `O=C(NC1(C(=O)O)Cc2ccccc2C1)c1ccc(C(F)(F)F)c(OCCc2c(F)cccc2Cl)c1` [Example 187], the IC50 is less than 0.1 µM.

In the case of `COc1ccc(C(=O)NC2(C(=O)O)Cc3ccccc3C2)cc1OCCc1cccc(C(C)C)c1` [Example 25], the IC50 is less than 0.1 µM.

As to `COc1ccc(C(=O)NC2(C(=O)O)Cc3ccccc3C2)cc1OCCc1cccc(CCNC(C)=O)c1` [Example 247, 2-(3-{2-[3-(2-Acetylamino-ethyl)-phenyl]-ethoxy}-4-methoxy-benzoylamino)-indane-2-carboxylic acid], the IC50 was 0.1 to 1 µM.

As for `COc1ccc(C(=O)NC2(C(=O)O)Cc3ccccc3C2)cc1OCCCC1CCCCC1` [Example 61], the IC50 fell in the range of 1 to 30 µM.

On to `COc1cc(C(=O)NC2(C(=O)O)Cc3ccccc3C2)ccc1OCCc1cccc(C)c1` [Example 252, 2-[3-Methoxy-4-(2-m-tolyl-ethoxy)-benzoylamino]-indane-2-carboxylic acid], for which the IC50 fell in the range of 0.1 to 1 µM.

`Cc1cccc(CCOc2cc(C(=O)NC3(C(=O)O)Cc4ccccc4C3)ccc2OCC2CC2)c1` [Example 266, 2-[4-cyclopropylmethoxy-3-(2-m-tolyl-ethoxy)-benzoylamino]-indane-2-carboxylic acid]: the IC50 is less than 0.1 µM.

As for `COc1c(F)cc(C(=O)NC2(C(=O)O)Cc3ccccc3C2)cc1-c1cccc(NS(C)(=O)=O)c1` [Example 359], the IC50 was less than 0.1 µM.

Regarding `COc1ncc(C(=O)NC2(C(=O)O)Cc3ccccc3C2)cc1-c1ccccc1Cl` [Example 225], the IC50 fell in the range of 0.1 to 1 µM.

Turning to `COc1ccc(C(=O)NC2(C(=O)O)Cc3ccccc3C2)cc1C(=O)c1ccccc1C` [Example 240, 2-[4-Methoxy-3-(2-methyl-benzoyl)-benzoylamino]-indane-2-carboxylic acid], the IC50 was in the range of 1 to 30 µM.

As for `CCOc1ccc(C(=O)NC2(C(=O)O)Cc3ccccc3C2)cc1NCCc1cccc(C)c1` [Example 178, 2-[4-Ethoxy-3-(2-m-tolyl-ethylamino)-benzoylamino]-indane-2-carboxylic acid], the IC50 lay within 1 to 30 µM.

For `COc1ccc(C(=O)NC2(C(=O)O)Cc3ccccc3C2)cc1-c1cccc(OC(F)(F)F)c1` [Example 302], the IC50 is less than 0.1 µM.

Consider `COc1ccc(C(=O)NC2(C(=O)O)Cc3ccccc3C2)cc1COCc1cccc(C)c1` [Example 279, 2-[4-Methoxy-3-(3-methyl-benzyloxymethyl)-benzoylamino]-indane-2-carboxylic acid], for which the IC50 lay in the range of 0.1 to 1 µM.

As for `CCc1ccc(CCOc2cc(C(=O)NC3(C(=O)O)Cc4ccccc4C3)ccc2OC)nc1` [Example 205, 2-{3-[2-(5-Ethyl-pyridin-2-yl)-ethoxy]-4-methoxy-benzoylamino}-indane-2-carboxylic acid], the IC50 lay within 1 to 30 µM.

On to `COc1ccc(C(=O)NC2(C(=O)O)Cc3ccccc3C2)cc1OCCc1cc(F)ccc1F` [Example 204, 2-{3-[2-(2,5-Difluoro-phenyl)-ethoxy]-4-methoxy-benzoylamino}-indane-2-carboxylic acid], for which the IC50 is less than 0.1 µM.

In the case of `COc1ccc(C(=O)NC2(C(=O)O)Cc3ccccc3C2)cc1OCc1nc2ccccc2n1C` [Example 69], the IC50 fell in the range of 1 to 30 µM.

For `Cc1cccc(CCOc2cc(C(=O)NC3(C(=O)O)Cc4ccccc4C3)ccc2N)c1` [Example 163, 2-[4-Amino-3-(2-m-tolyl-ethoxy)-benzoylamino]-indane-2-carboxylic acid], the IC50 lay within 0.1 to 1 µM.

As to `COc1ccc(C(=O)NC2(C(=O)O)Cc3ccccc3C2)cc1-c1cccc(C(F)(F)F)c1F` [Example 348], the IC50 was less than 0.1 µM.

On to `COc1c(F)cc(C(=O)NC2(C(=O)O)Cc3ccccc3C2)cc1OCCc1cccc(C)c1` [Example 106, 2-[3-Fluoro-4-methoxy-5-(2-m-tolyl-ethoxy)-benzoylamino]-indane-2-carboxylic acid], for which the IC50 was less than 0.1 µM.

Consider `COc1ccc(C(=O)NC2(C(=O)O)Cc3ccccc3C2)cc1OCCc1c(F)cccc1Cl` [Example 152], for which the IC50 is less than 0.1 µM.

As to `COc1ccc(C(=O)NC2(C(=O)O)Cc3ccccc3C2)cc1OCCc1cccc(SC)c1` [Example 16, 2-{4-Methoxy-3-[2-(3-methylsulfanyl-phenyl)-ethoxy]-benzoylamino}-indane-2-carboxylic acid], the IC50 is less than 0.1 µM.

As to `COc1ccc(C(=O)NC2(C(=O)O)Cc3ccccc3C2)cc1OCCc1cccc(Cl)c1F` [Example 153], the IC50 lay in the range of 0.1 to 1 µM.

The record behind these values is patent publication US8802720B2, “Acylamino-substituted fused cyclopentanecarboxylic acid derivatives and their use as pharmaceuticals” (SANOFI, priority 2008, dated 2014).
